One data set concerns the target T1, rat mGluR5 (Rattus norvegicus, UniProt P31424).
T1 construct: expressed in transfected cells
Nature of the data set: mGluR5 assay on HEK-expressing rat mGluR5 (fluorescent cell based Ca2+ mobilization assay). To be noted: for activation of rat mGluR5 receptors without co-addition of glutamate: HEK-rat mGluR5 cell line, no added glutamate or mGluR5 agonist; for EC50: HEK-293 cells stably expressing rat mGluR5, no co-addition of glutamate, mean of at least three independent experiments in duplicate, read-out: Ca2+ Flux (mean EC50). The procedure: Positive functional expression of HEK-293 cells stably expressing rat mGluR5 receptor was determined by measuring intracellular Ca^2+ changes using a Fluorometric Imaging Plate Reader (FLIPR, Molecular Devices, Sunnyvale, Calif.) in response to glutamate or selective known mGluR5 agonists and antagonists. Rat mGluR5 RT-PCR products in HEK-293 cells were sequenced and found 100% identical to rat mGluR5 Genbank reference sequence (NM_017012). HEK-293 cells expressing mGluR5 were maintained in media containing DMEM, dialyzed Fetal Bovine Serum (10%), Glutamax™ (2 mM), Penicillin (100 units/ml), Streptomycin (100 μg/ml), Geneticin (100 μg/ml) and Hygromycin-B (40 μg/ml) at 37° C./5% CO2.
After one day of incubation, cells were washed with assay buffer containing: 142 mM NaCl, 6 mM KCl, 1 mM […], 1 mM CaCl2, 20 mM HEPES, 1 g/L glucose, 0.125 mM sulfinpyrazone, pH 7.4. After 60 min of loading with 4 uM Fluo-4 (TefLabs, Austin, Tex.), the cells were washed three times with 50 μl of PBS Buffer and resuspended in 45 μl of assay Buffer. The plates were then transferred to a Fluorometric Imaging Plate Reader (FLIPR, Molecular Devices, Sunnyvale, Calif.) for the assessment of intracellular calcium flux. After monitoring the baseline fluorescence for 10 seconds, increasing concentrations of representative compound (from 0.01 to 60 μM) of the present invention diluted in Assay Buffer (15 μl of 4× dilutions) was added to the cell. The final DMSO concentration in the assay was 0.3%. In each experiment, fluorescence was then monitored as a function of time for 3 minutes and the data analyzed using Microsoft Excel and GraphPad Prism. Each data point was also measured two times.
Under these experimental conditions, this HEK-rat mGluR5 cell line is able to directly detect positive allosteric modulators without the need of co-addition of glutamate or mGluR5 agonist.
The concentration-response curves of representative compounds of the present invention were generated using the Prism GraphPad software (Graph Pad Inc, San Diego, USA). The curves were fitted to a four-parameter logistic equation:
(Y=Bottom+(Top−Bottom)/(1+10̂((Log EC50−X)*Hill Slope)
allowing determination of EC50 values.
The Table 1 below represents the mean EC50 obtained from at least three independent experiments of selected molecules performed in duplicate.
(In general: Calcium assays in cells follow changes in intracellular calcium, usually with a dye or a luminescent sensor.)

Data set [1] concerns the target T2, mGluR5 (Rattus norvegicus, UniProt P31424).
T2 construct: positive allosteric modulators of mGluR5 receptors in native preparations; endogenous in cells; host or cells: primary cortical astrocytes from Sprague-Dawley rat embryos (E16-19)
To be noted: cited from earlier work.

The target in data set [2] is T2, mGluR5. Nature of the data set: mGluR5 binding assay ([3H]-MPEP, rat brain membranes). To be noted: 3 nM [3H]-MPEP, rat cortex membranes, 1 h at 4° C.; read-out: IC50, inhibition of [3H]-MPEP binding. The source says:
Activity of compounds of the invention was examined following a radioligand binding technique using whole rat brain and tritiated 2-methyl-6-(phenylethynyl)-pyridine ([^3H]-MPEP) as a ligand following similar methods than those described in Gasparini F. et al. (2002) Bioorg. Med. Chem. Lett., 12, 407-409 and in Anderson J. F. et al. J. Pharmacol. Exp. Ther. 2002, 303, 3, 1044-1051.
Cortices were dissected out from brains of 200-300 g Sprague-Dawley rats (Charles River Laboratories, L'Arbresle, France). Tissues were homogenized in 10 volumes (vol/wt) of ice-cold 50 mM Hepes-NaOH (pH 7.4) using a Polytron disrupter (Kinematica AG, Luzern, Switzerland) and centrifuged for 30 min at 40,000 g. (4° C.). […] Protein concentration was determined by the Bradford method (Bio-Rad protein assay, Reinach, Switzerland) with bovine serum albumin as standard.
Membranes were thawed and resuspended in binding buffer containing 20 mM HEPES-NaOH, 3 mM MgCl2, 3 mM CaCl2, 100 mM NaCl, pH 7.4. […] Radioactivity was determined by liquid scintillation spectrometry using a 96-well plate reader (TopCount, Perkin-Elmer, Downers Grove, USA).
The inhibition curves were generated using the Prism GraphPad program (Graph Pad Software Inc, San Diego, USA). […] The mean of IC50 obtained from at least three independent experiments of selected molecules performed in duplicate were calculated.

Usually EC50 stands for the concentration that produces a half-maximal response. One may read the IC50 as the concentration that inhibits the measured activity by half. Usually melting point stands for the temperature of the solid-liquid transition.

T2 sequence (P31424 21-1203): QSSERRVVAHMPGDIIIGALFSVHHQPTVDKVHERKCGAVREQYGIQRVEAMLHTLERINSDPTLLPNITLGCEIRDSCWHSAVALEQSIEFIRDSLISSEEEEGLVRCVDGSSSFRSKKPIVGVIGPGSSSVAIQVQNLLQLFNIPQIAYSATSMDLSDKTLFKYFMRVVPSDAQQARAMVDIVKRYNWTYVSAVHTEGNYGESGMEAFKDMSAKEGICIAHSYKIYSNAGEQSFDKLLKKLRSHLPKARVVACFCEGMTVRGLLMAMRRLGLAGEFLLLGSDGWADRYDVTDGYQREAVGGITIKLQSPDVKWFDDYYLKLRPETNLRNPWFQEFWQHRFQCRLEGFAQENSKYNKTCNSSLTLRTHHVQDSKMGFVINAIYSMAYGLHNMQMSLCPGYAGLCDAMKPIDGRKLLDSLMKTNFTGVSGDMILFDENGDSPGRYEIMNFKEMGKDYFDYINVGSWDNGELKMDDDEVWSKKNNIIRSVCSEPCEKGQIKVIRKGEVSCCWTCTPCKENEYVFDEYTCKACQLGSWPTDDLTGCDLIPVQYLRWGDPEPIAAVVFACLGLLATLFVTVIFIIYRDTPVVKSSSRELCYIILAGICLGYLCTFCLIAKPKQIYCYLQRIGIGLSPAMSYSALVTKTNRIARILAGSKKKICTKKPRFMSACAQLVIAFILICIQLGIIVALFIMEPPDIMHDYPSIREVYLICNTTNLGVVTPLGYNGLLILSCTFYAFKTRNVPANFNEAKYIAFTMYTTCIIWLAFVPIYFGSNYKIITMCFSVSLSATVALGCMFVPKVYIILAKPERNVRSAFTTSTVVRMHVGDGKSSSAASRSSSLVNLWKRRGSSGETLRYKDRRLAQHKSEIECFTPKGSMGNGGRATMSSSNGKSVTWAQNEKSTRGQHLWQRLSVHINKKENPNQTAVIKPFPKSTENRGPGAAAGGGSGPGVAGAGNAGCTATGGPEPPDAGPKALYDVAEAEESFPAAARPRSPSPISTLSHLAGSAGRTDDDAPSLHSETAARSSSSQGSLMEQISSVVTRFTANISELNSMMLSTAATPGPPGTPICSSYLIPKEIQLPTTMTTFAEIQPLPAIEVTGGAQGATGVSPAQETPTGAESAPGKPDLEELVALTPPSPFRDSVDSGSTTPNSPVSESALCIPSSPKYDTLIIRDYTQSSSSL
T1 sequence (P31424 21-1171 isoform P31424-2 limits assumed): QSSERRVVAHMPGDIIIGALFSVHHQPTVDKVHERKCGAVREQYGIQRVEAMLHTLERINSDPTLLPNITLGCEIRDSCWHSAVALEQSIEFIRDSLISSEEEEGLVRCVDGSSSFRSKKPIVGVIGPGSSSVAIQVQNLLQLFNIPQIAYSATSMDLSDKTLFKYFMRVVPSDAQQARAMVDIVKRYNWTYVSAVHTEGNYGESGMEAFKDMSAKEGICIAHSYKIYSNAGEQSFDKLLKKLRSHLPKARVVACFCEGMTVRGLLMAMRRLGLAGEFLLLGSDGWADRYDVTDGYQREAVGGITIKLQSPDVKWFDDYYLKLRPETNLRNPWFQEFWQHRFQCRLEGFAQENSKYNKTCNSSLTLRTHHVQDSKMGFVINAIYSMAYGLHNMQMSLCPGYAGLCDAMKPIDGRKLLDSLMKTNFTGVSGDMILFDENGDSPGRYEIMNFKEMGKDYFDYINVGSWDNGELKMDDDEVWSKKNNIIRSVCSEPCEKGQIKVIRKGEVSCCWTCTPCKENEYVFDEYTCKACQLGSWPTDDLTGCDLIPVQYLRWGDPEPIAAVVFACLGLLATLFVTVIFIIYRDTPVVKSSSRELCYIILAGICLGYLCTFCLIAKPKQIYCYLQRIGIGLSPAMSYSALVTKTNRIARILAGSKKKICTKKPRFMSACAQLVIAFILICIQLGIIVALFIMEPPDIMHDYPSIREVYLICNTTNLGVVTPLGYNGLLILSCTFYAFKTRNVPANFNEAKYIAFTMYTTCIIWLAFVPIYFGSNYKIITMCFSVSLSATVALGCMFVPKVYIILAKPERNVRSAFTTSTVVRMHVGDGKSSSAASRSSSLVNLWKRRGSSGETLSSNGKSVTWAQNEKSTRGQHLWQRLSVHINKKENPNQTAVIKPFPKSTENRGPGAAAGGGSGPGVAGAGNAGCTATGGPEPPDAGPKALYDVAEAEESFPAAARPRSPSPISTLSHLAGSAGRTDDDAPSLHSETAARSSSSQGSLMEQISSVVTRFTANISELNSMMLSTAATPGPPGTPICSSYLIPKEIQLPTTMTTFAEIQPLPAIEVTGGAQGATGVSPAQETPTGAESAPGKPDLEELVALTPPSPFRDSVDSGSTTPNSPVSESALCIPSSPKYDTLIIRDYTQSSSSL

For the compound `N#Cc1cccc(C(=O)Nc2cc(-c3ccccc3)nn2-c2ccccc2)c1` [CDPPB, reference compound], the “activation of rat mGluR5 receptors without co-addition of glutamate” value on rat mGluR5 was “activating”. In addition, at mGluR5 [1], the “activity in rat cortical astrocytes culture in the absence of added glutamate” value (shortened to “activity”) is “inactive”.

For the compound `O=C(Nc1ccc(Cl)cc1CN1C(=O)c2ccccc2C1=O)c1ccccc1O` [CPPHA, reference compound], the “activation of rat mGluR5 receptors without co-addition of glutamate” value on rat mGluR5 is “activating”. At mGluR5 [1], the “activity” value was “inactive”. As for `Fc1cccc(/C=N/N=C/c2cccc(F)c2)c1` [DFB, reference compound], the “activation of rat mGluR5 receptors without co-addition of glutamate” value at rat mGluR5 is reported as “activating”. Also, at mGluR5 [1], the “activity” value is “inactive”. As for `O=C(Nc1ccc(F)cc1)O[C@H]1CCCN(C(=O)c2ccc(F)cc2)C1` [Example 1, (4-Fluoro-phenyl)-carbamic acid (S)-1-(4-fluoro-benzoyl)-piperidin-3-yl ester], on rat mGluR5, the half-maximal effective concentration (EC50) lay in the range of 1 to 10 µM. Further, on mGluR5 [2], the IC50 is less than 30 µM.

As to `O=C(Nc1ccc(Cl)cc1)O[C@H]1CCCN(C(=O)c2ccc(F)cc2)C1` [Example 2, (4-Chloro-phenyl)-carbamic acid (S)-1-(4-fluoro-benzoyl)-piperidin-3-yl ester], the EC50 on rat mGluR5 fell in the range of 1 to 10 µM. In the case of `COc1ccc(NC(=O)O[C@H]2CCCN(C(=O)c3ccc(F)cc3)C2)cc1` [Example 3, (4-Methoxy-phenyl)-carbamic acid (S)-1-(4-fluoro-benzoyl)-piperidin-3-yl ester], on rat mGluR5, the EC50 is 1 to 10 µM. As for `O=C(Nc1ccccc1)O[C@H]1CCCN(C(=O)c2ccc(F)cc2)C1` [Example 4, Phenyl-carbamic acid (S)-1-(4-fluoro-benzoyl)-piperidin-3-yl ester], on rat mGluR5, the EC50 was less than 1 µM.

On to `O=C(Nc1cccc(F)c1)O[C@H]1CCCN(C(=O)c2ccc(F)cc2)C1` [Example 5, (3-Fluoro-phenyl)-carbamic acid (S)-1-(4-fluoro-benzoyl)-piperidin-3-yl ester], for which the EC50 on rat mGluR5 was less than 1 µM. On to `O=C(Nc1ccccc1F)O[C@H]1CCCN(C(=O)c2ccc(F)cc2)C1` [Example 6, (2-Fluoro-phenyl)-carbamic acid (S)-1-(4-fluoro-benzoyl)-piperidin-3-yl ester], for which the EC50 at rat mGluR5 is less than 1 µM.

For `O=C(NC1CCCC1)O[C@H]1CCCN(C(=O)c2ccc(F)cc2)C1` [Example 7, Cyclopentyl-carbamic acid (S)-1-(4-fluoro-benzoyl)-piperidin-3-yl ester], the EC50 at rat mGluR5 is more than 10 µM. The same measure, in the same setting: the value for `O=C(NC1CCCCC1)O[C@H]1CCCN(C(=O)c2ccc(F)cc2)C1` [Example 8, Cyclohexyl-carbamic acid (S)-1-(4-fluoro-benzoyl)-piperidin-3-yl ester] was 1 to 10 µM; that for `O=C(Nc1ccncc1)O[C@H]1CCCN(C(=O)c2ccc(F)cc2)C1` [Example 9, Pyridin-4-yl-carbamic acid (S)-1-(4-fluoro-benzoyl)-piperidin-3-yl ester] was 1 to 10 µM. Consider `O=C(NCc1ccc(F)cc1)O[C@H]1CCCN(C(=O)c2ccc(F)cc2)C1` [Example 10, (4-Fluoro-benzyl)-carbamic acid (S)-1-(4-fluoro-benzoyl)-piperidin-3-yl ester], for which the EC50 on rat mGluR5 fell in the range of 1 to 10 µM. In turn, `O=C(Nc1ccc(F)cc1)N[C@H]1CCCN(C(=O)c2ccc(F)cc2)C1` [Example 11, 1-[(S)-1-(4-Fluoro-benzoyl)-piperidin-3-yl]-3-(4-fluoro-phenyl)-urea] came in with a melting point of 228 to 231 °C. Moreover, on rat mGluR5, the EC50 was in the range of 1 to 10 µM. As to `O=C(Nc1ccccc1)OC1CCN(C(=O)c2ccc(F)cc2)C1` (stereo not drawn) [Example 12, (Phenyl)-carbamic acid-1-(4-fluoro-benzoyl)-pyrrolidin-3-yl ester], the melting point lay in the range of 173 to 175 °C. Also, at rat mGluR5, the EC50 fell in the range of 1 to 10 µM.
